Patent US12239643B2, “Therapeutic agent for inflammatory diseases, autoimmune diseases, fibrotic diseases, and cancer diseases” (MEIJI SEIKA PHARMA CO., LTD., priority 2018, dated 2025)
Read-outs that look alike come from different tables or passages of the source.

Tested on: PDE4
Assay: Evaluation of PDE4 inhibitory activity, scintillation proximity assay
Format: biochemical
Conditions: scintillation proximity assay
Summary of the method: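 IC50 was derived from inhibition curves, referenced to an enzyme-free blank and a DMSO-only control. Compound, PDE4 preparation and tritiated cAMP reacted 120 min at RT in Tris-HCl buffer (pH 7.4) with MgCl2, EGTA and BSA; YSi-SPA beads with ZnSO4 bound product before scintillation counting.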

[1] = read-out: PDE4 Inhibitory Activity (Evaluation 1; concentration for the inhibition rate of 50%)
[2] = class symbols of Evaluation 1, read-out: PDE4 Inhibitory Activity (concentration for the inhibition rate of 50%, IC50), Evaluation 1

| SMILES | IC50 [1] [nM] | IC50 [2] [nM] |
| --- | --- | --- |
| FC(F)Oc1ccc(-c2nccs2)c2oc(N3CC4CC(C3)N4)nc12 [Example 278, 2-(3,6-Diazabicyclo[3.1.1]heptan-3-yl)-4-(difluoromethoxy)-7-(thiazol-2-yl)benzo[d]oxazole] | < 100 |  |
| CC(O)(c1cc(-c2nccs2)c2oc(N3CC4CCCC(C3)N4)nc2c1)C(F)(F)F (centres unmarked) [Example 161, 2-(2-(3,9-Diazabicyclo[3.3.1]nonan-3-yl)-7-(thiazol-2-yl)benzo[d]oxazol-5-yl)-1,1,1-trifluoropropan-2-ol] |  | < 100 |
| CC(O)(c1cc(-c2nccs2)c2oc(N3CC4CC(C3)N4)nc2c1OC(F)(F)F)C(F)(F)F (centres unmarked) [Example 216, 2-(2-(3,6-Diazabicyclo[3.1.1]heptan-3-yl)-7-(thiazol-2-yl)-4-(trifluoromethoxy)benzo[d]oxazol-5-yl)-1,1,1-trifluoropropan-2-ol] | < 100 |  |
| N#CC1CC(Oc2ccc(-c3nccs3)c3oc(N4CC5CC(C4)N5)nc23)C1 (centres unmarked) [Example 266, 3-((2-(3,6-Diazabicyclo[3.1.1]heptan-3-yl)-7-(thiazol-2-yl)benzo[d]oxazol-4-yl)oxy)cyclobutane-1-carbonitrile] | < 100 |  |
| OC(c1cc(-c2nccs2)c2oc(N3CC4CCC(C3)N4)nc2c1OC(F)(F)F)C(F)F (centres unmarked) [Example 275, 1-(2-(3,8-Diazabicyclo[3.2.1]octan-3-yl)-7-(thiazol-2-yl)-4-(trifluoromethoxy)benzo[d]oxazol-5-yl)-2,2-difluoroethan-1-ol] | < 100 |  |
| OC1CCC(Oc2ccc(-c3nccs3)c3oc(N4CC5CC(C4)N5)nc23)CC1 (centres unmarked) [Example 305, 4-((2-(3,6-Diazabicyclo[3.1.1]heptan-3-yl)-7-(thiazol-2-yl)benzo[d]oxazol-4-yl)oxy)cyclohexan-1-ol] | < 100 |  |
| CC(O)c1cc(-c2nccs2)c2oc(N3CC4CC(C3)N4)nc2c1OC(F)(F)F (centres unmarked) [Example 273, 1-(2-(3,6-Diazabicyclo[3.1.1]heptan-3-yl)-7-(thiazol-2-yl)-4-(trifluoromethoxy)benzo[d]oxazol-5-yl)ethan-1-ol] | < 100 |  |
| CC(O)(c1ccc(-c2nccs2)c2oc(N3CC4CC(C3)N4)nc12)C(F)F (centres unmarked) [Example 297, 2-(2-(3,6-Diazabicyclo[3.1.1]heptan-3-yl)-7-(thiazol-2-yl)benzo[d]oxazol-4-yl)-1,1-difluoropropan-2-ol] | < 100 |  |
| CCOC(=O)c1cc(-n2cccn2)c2oc(N3CC4COCC(C3)N4)nc2c1 [Example 92, Ethyl 2-(3-oxa-7,9-diazabicyclo[3.3.1]nonan-7-yl)-7-(1H-pyrazol-1-yl)benzo[d]oxazole-5-carboxylate] |  | > 1000 |
| CN(C)C(=O)C(F)(F)Oc1ccc(-c2nccs2)c2oc(N3CC4CC(C3)N4)nc12 [Example 408, 2-((2-(3,6-Diazabicyclo[3.1.1]heptan-3-yl)-7-(thiazol-2-yl)benzo[d]oxazol-4-yl)oxy)-2,2-difluoro-N,N-dimethylacetamide] | < 100 |  |
| O=S1(=O)CCC(Oc2ccc(-c3nccs3)c3oc(N4CC5CC(C4)N5)nc23)CC1 [Example 314, 4-((2-(3,6-Diazabicyclo[3.1.1]heptan-3-yl)-7-(thiazol-2-yl)benzo[d]oxazol-4-yl)oxy)tetrahydro-2H-thiopyran 1,1-dioxide] | < 100 |  |
| NC(=O)c1cc(-c2nccs2)c2oc(N3CC4CCC(C3)N4)nc2c1 [Example 99, 2-(3,8-Diazabicyclo[3.2.1]octan-3-yl)-7-(thiazol-2-yl)benzo[d]oxazole-5-carboxamide] |  | < 100 |
| NS(=O)(=O)c1ccc(-c2nccs2)c2oc(N3CC4CC(C3)N4)nc12 [Example 396, 2-(3,6-Diazabicyclo[3.1.1]heptan-3-yl)-7-(thiazol-2-yl)benzo[d]oxazole-4-sulfonamide] | < 100 |  |
| CN(CCO)C(=O)C(F)(F)Oc1ccc(-c2nccs2)c2oc(N3CC4CC(C3)N4)nc12 [Example 407, 2-((2-(3,6-Diazabicyclo[3.1.1]heptan-3-yl)-7-(thiazol-2-yl)benzo[d]oxazol-4-yl)oxy)-2,2-difluoro-N-(2-hydroxyethyl)-N-methylacetamide] | < 100 |  |
| COCCOc1cc(-c2nccs2)c2oc(N3CC4CCC(C3)N4)nc2c1 [Example 69, 2-(3,8-Diazabicyclo[3.2.1]octan-3-yl)-5-(2-methoxyethoxy)-7-(thiazol-2-yl)benzo[d]oxazole] |  | < 100 |
| COc1ccc(-c2nccs2)c2oc(N3CC4CC(C3)N4)nc12 [Example 76, 2-(3,6-Diazabicyclo[3.1.1]heptan-3-yl)-4-methoxy-7-(thiazol-2-yl)benzo[d]oxazole] |  | < 100 |
| c1csc(-c2cc(CN3CCOCC3)cc3nc(N4CC5CCC(C4)N5)oc23)n1 [Example 168, 2-(3,8-Diazabicyclo[3.2.1]octan-3-yl)-5-(morpholinomethyl)-7-(thiazol-2-yl)benzo[d]oxazole] |  | < 100 |
| COC(c1ccc(-c2nccs2)c2oc(N3CC4CC(C3)N4)nc12)C(F)(F)F (centres unmarked) [Example 123, 2-(3,6-Diazabicyclo[3.1.1]heptan-3-yl)-7-(thiazol-2-yl)-4-(2,2,2-trifluoro-1-methoxyethyl)benzo[d]oxazole] |  | < 100 |

| SMILES | IC50 [1] [nM] | IC50 [2] [nM] |
| --- | --- | --- |
| CN(CCO)C(=O)c1cc(-c2nccs2)c2oc(N3CC4CCC(C3)N4)nc2c1OC(F)(F)F [Example 193, 2-(3,8-Diazabicyclo[3.2.1]octan-3-yl)-N-(2-hydroxyethyl)-N-methyl-7-(thiazol-2-yl)-4-(trifluoromethoxy)benzo[d]oxazole-5-carboxamide] | < 100 |  |
| FC(F)(F)Oc1cc(-c2nccs2)c2oc(N3CC4CCC(C3)N4)nc2c1 [Example 54, 2-(3,8-Diazabicyclo[3.2.1]octan-3-yl)-7-(thiazol-2-yl)-5-(trifluoromethoxy)benzo[d]oxazole] |  | < 100 |
| FC(F)(F)COC(c1ccc(-c2nccs2)c2oc(N3CC4CCC(C3)N4)nc12)C(F)(F)F (centres unmarked) [Example 221, 2-(3,8-Diazabicyclo[3.2.1]octan-3-yl)-7-(thiazol-2-yl)-4-(2,2,2-trifluoro-1-(2,2,2-trifluoroethoxy)ethyl)benzo[d]oxazole] | < 100 |  |
| FC(F)(F)COC(c1ccc(-c2nccs2)c2oc(N3CC4CC(C3)N4)nc12)C(F)(F)F (centres unmarked) [Example 223, 2-(3,6-Diazabicyclo[3.1.1]heptan-3-yl)-7-(thiazol-2-yl)-4-(2,2,2-trifluoro-1-(2,2,2-trifluoroethoxy)ethyl)benzo[d]oxazole] | < 100 |  |
| CCOC(=O)c1cc(-c2nccs2)c2oc(N3CC4CCC(C3)N4)nc2c1OC(F)(F)F [Example 186, Ethyl 2-(3,8-diazabicyclo[3.2.1]octan-3-yl)-7-(thiazol-2-yl)-4-(trifluoromethoxy)benzo[d]oxazole-5-carboxylate] | < 100 |  |
| OCc1cc(-c2nccs2)c2oc(N3CC4CCC(C3)N4)nc2c1OC(F)(F)F [Example 201, (2-(3,8-Diazabicyclo[3.2.1]octan-3-yl)-7-(thiazol-2-yl)-4-(trifluoromethoxy)benzo[d]oxazol-5-yl)methanol] | < 100 |  |
| CSc1cc(-c2nccs2)c2oc(N3CC4CC(C3)N4)nc2c1 [Example 40, 2-(3,6-Diazabicyclo[3.1.1]heptan-3-yl)-5-(methylthio)-7-(thiazol-2-yl)benzo[d]oxazole] |  | < 100 |
| COC(c1ccc(-c2nccs2)c2oc(N3CC4CC(C3)N4)nc12)C(F)F (centres unmarked) [Example 130, 2-(3,6-Diazabicyclo[3.1.1]heptan-3-yl)-4-(2,2-difluoro-1-methoxyethyl)-7-(thiazol-2-yl)benzo[d]oxazole] |  | < 100 |
| CCOC(c1ccc(-c2nccs2)c2oc(N3CC4CC(C3)N4)nc12)C(F)(F)F (centres unmarked) [Example 224, 2-(3,6-Diazabicyclo[3.1.1]heptan-3-yl)-4-(1-ethoxy-2,2,2-trifluoroethyl)-7-(thiazol-2-yl)benzo[d]oxazole] | < 100 |  |
| CCOC(c1ccc(-c2nccs2)c2oc(N3CC4CCC(C3)N4)nc12)C(F)(F)F (centres unmarked) [Example 220, 2-(3,8-Diazabicyclo[3.2.1]octan-3-yl)-4-(1-ethoxy-2,2,2-trifluoroethyl)-7-(thiazol-2-yl)benzo[d]oxazole] | < 100 |  |
| CCOC(=O)c1cc(-c2nccs2)c2oc(N3CC4CC(C3)N4)nc2c1 [Example 87, Ethyl 2-(3,6-diazabicyclo[3.1.1]heptan-3-yl)-7-(thiazol-2-yl)benzo[d]oxazole-5-carboxylate] |  | < 100 |
| CCOC(=O)c1cc(-c2nccs2)c2oc(N3CC4COCC(C3)N4)nc2c1 [Example 88, Ethyl 2-(3-oxa-7,9-diazabicyclo[3.3.1]nonan-7-yl)-7-(thiazol-2-yl)benzo[d]oxazole-5-carboxylate] |  | 100 to 1000 |
| FC(F)(F)c1c(Cl)cc(-n2cccn2)c2oc(N3CC4CCC(C3)N4)nc12 [Example 15, 2-(3,8-Diazabicyclo[3.2.1]octan-3-yl)-5-chloro-7-(1H-pyrazol-1-yl)-4-(trifluoromethyl)benzo[d]oxazole] |  | < 100 |
| CC(O)(c1ccc(-c2nccs2)c2oc(N3CC4CCC(C3)N4)nc12)C(F)F (centres unmarked) [Example 129, 2-(2-(3,8-Diazabicyclo[3.2.1]octan-3-yl)-7-(thiazol-2-yl)benzo[d]oxazol-4-yl)-1,1-difluoropropan-2-ol] |  | < 100 |
| CC(=O)c1ccc(-c2nccs2)c2oc(N3CC4CCC(C3)N4)nc12 [Example 245, 1-(2-(3,8-Diazabicyclo[3.2.1]octan-3-yl)-7-(thiazol-2-yl)benzo[d]oxazol-4-yl)ethan-1-one] | < 100 |  |
| Oc1ccc(-c2nccs2)c2oc(N3CC4CCC(C3)N4)nc12 [Example 78, 2-(3,8-Diazabicyclo[3.2.1]octan-3-yl)-7-(thiazol-2-yl)benzo[d]oxazol-4-ol] |  | < 100 |
| COC(C)c1ccc(-c2nccs2)c2oc(N3CC4CCCC(C3)N4)nc12 (centres unmarked) [Example 243, 2-(3,9-Diazabicyclo[3.3.1]nonan-3-yl)-4-(1-methoxyethyl)-7-(thiazol-2-yl)benzo[d]oxazole] | < 100 |  |
